Where two headings read alike, the source gives them in different places. Ends that are not written are not given here.
Assays:
Format in all cases: cell-based, mouse
[1] = tested on: BMDMs; assay: In vitro cell viability study (Quanti-Max) on BMDMs
Protocol: Primary bone marrow-derived macrophages (BMDMs) were isolated from female C57BL/6 mice and cultured for five to seven days in a medium supplemented with macrophage-colony stimulating factor (M-CSF) for differentiation. HEK293T cells were acquired from the American Type Culture Collection (ATCC). Both BMDMs and HEK293T cells were cultured in Dulbecco's modified Eagle's medium (DMEM, GenDEPOT Inc., USA) supplemented with 10% fetal bovine serum (FBS), penicillin (100 U/mL), and streptomycin (100 μg/mL).
BMDMs were plated on 96-well plates (SPL Life Science Co. Ltd., Republic of Korea) at a density of 2×10^4 cells/well and incubated in complete DMEM for 18 h. Thereafter, the cells were treated with various concentrations of H-T, H-R, P-T, P-M peptides, control, TMR, or TMR using Abs Lipo. After 48 h of incubation, the medium was replaced with 100 μl of DMEM and the Quanti-Max solution (10% of each media volume). After two hours of incubation at 37° C. and 5% CO2, the absorbance of the plates including the Quanti-Max solution was measured at 450 nm using the MMR SPARK® microplate reader (TECAN Group Ltd., Switzerland).

[2] = tested on: LPS-induced cytokine production in BMDMs; assay: Cytokine ELISA in supernatant of LPS-treated BMDMs; conditions: LPS 100 ng/mL, 18 h
Description: FIG. 2. Preparation of TLR4/MD2/RAGE-interacting motifs of HMGB1 or PTX3; • (A and B) Schematic diagram of HMGB1 (A) and PTX3 (B) domains. Glutathione s-transferase (GST)-tagged truncates including the TLR4-, RAGE-, or MD2-binding domains of HMGB1 or PTX3 were constructed. […] HEK293T cells transfected with the GST-tagged constructs in combination with HA-TLR4, Myc-RAGE or His-MD2 were confirmed by GST-pulldown. Western blots of WCLs and eluates after GST-pulldown are shown, using glyceraldehyde 3-phosphate dehydrogenase (GAPDH) as a loading control in WCLs. Based on the pulldown binding results, TLR4-, MD2-, and RAGE-targeted peptides were constructed and prepared as an H-T, H-R, P-T, or P-M peptide (indicated in panels A and B); • (C) BMDMs were incubated with the H-T, H-R, P-T, or P-M peptide at the indicated concentrations for 48 h, and then cell viability was measured by a cell viability assay. […] They were immunoprecipitated with αFlag for two hours, separated by sodium dodecyl sulfate-polyacrylamide gel electrophoresis (SDS-PAGE), and evaluated by immunoblotting; • (E) Competition between rHMGB1 (top) or PTX3 (bottom) and the constructed peptides for their respective receptors. […] TNF-α, IL-6, IL-12p40, and IL-10 levels in the supernatant of the indicated peptide-treated BMDMs, along with LPS (100 ng/mL, 18 h), were determined by ELISA. […]

[3] = tested on: BMDMs; assay: Cytokine ELISA in BMDMs stimulated with recombinant alarmins; conditions: BMDMs treated with recombinant alarmin 2, 5 μg/mL
Description: FIG. 1. Interaction of extracellular high-mobility group protein B1 (HMGB1) and (pentraxin 3) PTX3 with toll-like receptor 4 (TLR4) or receptor for advanced glycation end products (RAGE) in murine macrophages; • (A and B) Release of HMGB1 (A) or PTX3 (B) from murine macrophages after stimulation with lipopolysaccharide (LPS). LPS-induced HMGB1 (A) or PTX3 (B) release from murine macrophages. Immunoblots (IB) for HMGB1 and PTX3 in the cell lysates in LPS-treated bone marrow-derived macrophages (BMDMs) and the supernatant at indicated time points after LPS (100 ng/ml); • (C and D) Interaction between HMGB1 (C) or PTX3 (D) with receptors thereof. HEK293T cells were transfected with constructs, and cell lysates were immunoprecipitated with a Flag-tag-specific antibody and analyzed by immunoblotting (IB) with the indicated antibodies. […] Immunoprecipitants and whole cel lysates (WCL) were analyzed by immunoblotting with the indicated antibodies; • (E) TNF-α, IL-6, IL-12p40, and IL-10 levels in the supernatant of LPS (100 ng/ml, 18 h) or recombinant alarmins (rHMGB1 or rPTX3, each (2, 5 μg/mL))-treated BMDMs determined by enzyme-linked immunosorbent assay (ELISA). The data shown represents at least three independent experiments (n≥3), and bars denote mean±SEM (****p<0.001), and significance was measured by two-way analysis of variance (ANOVA); […]

[4] = BMDMs, 48 h incubation, various concentrations

## AAYRAKGKPD [H-R]
[1]; [4]
  viability of BMDMs: almost no impact

## ALAAVLEELR [P-M]
[1]; [4]
  viability of BMDMs: almost no impact

## FKDPNAPKRP [H-T]
[1]
  viability of BMDMs: almost no impact

## PAEARLTSAL [P-T]
[1]; [4]
  viability of BMDMs: almost no impact

## TMR peptide: fusion peptide of SEQ ID NO: 2 to 5 joined by GG linkers, FKDPNAPKRPGGAAYRAKGKPDGGPAEARLTSALGGALAAVLEELR
[2]
  production of inflammatory cytokines (TNF-α, IL-6, IL-12p40): significantly reduced

## rPTX3: recombinant alarmin protein pentraxin 3 [reference compound]
[3]
  levels of TNF-α, IL-6, IL-12p40 and IL-10: elevated levels

B1: rHMGB1: recombinant alarmin protein high-mobility group protein B1 (protein, UniProt P09429 1-215, looked up)
High mobility group protein B1: MGKGDPKKPRGKMSSYAFFVQTCREEHKKKHPDASVNFSEFSKKCSERWKTMSAKEKGKFEDMAKADKARYEREMKTYIPPKGETKKKFKDPNAPKRPPSAFFLFCSEYRPKIKGEHPGLSIGDVAKKLGEMWNNTAADDKQPYEKKAAKLKEKYEKDIAAYRAKGKPDAAKKGVVKAEKSKKKKEEEEDEEDEEDEEEEEDEEDEDEEEDDDDE
modifications: Flag tag
[3]
  levels of TNF-α, IL-6, IL-12p40 and IL-10: elevated levels
